Values joined by “and” are separate entries in the source; they are usually repeats but may differ in a detail not shown here. Equal values may be shown once.
What was measured:
[1] = test system: IL24; experiment: Microarray analysis of mononuclear cells, IL24; type: cell-based, human; conditions: for IL24 signal +, Average: 10 μM MGBG
Method: (§1) Blood samples were obtained from HIV infected patients (N=9) with positive viral load and reduced CD4 counts, and non-HIV infected, healthy controls (N=6). Blood was collected into heparin anticoagulant tubes and mononuclear cells were isolated by Percoll gradient centrifugation. The cells from each sample were split into 2: one-half receives MGBG at concentration of 10 μM and the other half received no treatment. All samples were then cultured overnight in RPMI media with 10% fetal bovine serum at 37° C. under non-adherent conditions. The next day cells were collected by centrifugation, washed one time with PBS, and lysed by resuspension in TRIZOL, and total RNA was prepared according to manufacturer's instructions (Invitrogen, Carlsbad, Calif.). […] The RNA was then amplified for microarray analysis using a 2 cycle amplification protocol according to the manufacturer's instructions (Affymetrix, Santa Clara, Calif.). The amplified RNAs were then hybridized to Human Genome U133 plus 2.0 microarrays (Affymetrix) and expression data was obtained using an Affymetrix scanner and GCOS protocols. Microarray data was analyzed with GeneSpring Microarray Suite. Results were normalized using a set of 100 probe sets determined by the manufacturer to have relatively invariant expression across most cell types.

[2] = test system: mononuclear cells; experiment: Microarray analysis, number of probes changed; type: cell-based, human; conditions: average signals, MGBG vs untreated samples
Method: as §1

[3] = test system: SPP1; experiment: Quantitative RT-PCR, unsorted mononuclear cells, SPP1; type: cell-based, human
Method: (§2) To evaluate the effect of MGBG on gene expression, blood samples were obtained from patients (N=18, 10 HIV-infected and 8 Healthy Controls). Mononuclear cells were isolated via Percoll gradient centrifugation. The cells were split into two tubes, one treated with 10 μM of MGBG and the other non-treated. The cells were then cultured overnight in RPMI media plus 10% fetal bovine serum at 37 C under non-adherent conditions, collected, lysed using Trizol solution, and total RNA prepared according to manufacturer's instructions (Invitrogen, Carlsbad, Calif.).
(§3) Approximately 200 ng of total RNA prepared from each sample was converted to cDNA using the First Strand cDNA Synthesis Kit for RT-PCR [AMV] kit (Roche Applied Diagnostics, Indianapolis, Ind.) according to manufacturer's instructions. Around 5 ng of cDNA sample was then used for PCR performed on a LightCycler (Roche Applied Diagnostics, Indianapolis, Ind.) using the LightCycler FastStart DNA Master SYBR Green I kit. PCR conditions are as follows: 1 cycle of denaturation at 95° C. for 10 minutes, followed by 45 cycles of 95° C. for 10 seconds, 68° C. for 10 seconds, and 72° C. for 16 seconds.
(§4) The sequences of gene-specific primers evaluated are listed below. All samples were also amplified with the human β-actin LightCycler-Primer set (Roche Diagnostics).

[4] = test system: IL1RN; experiment: Quantitative RT-PCR, unsorted mononuclear cells, IL1RN; type: cell-based, human
Method: as §2, §3, §4

[5] = test system: SGNE3; experiment: Quantitative RT-PCR, unsorted mononuclear cells, SGNE3; type: cell-based, human
Method: as §2, §3, §4

[6] = test system: IL24; experiment: Quantitative RT-PCR, unsorted mononuclear cells, IL24; type: cell-based, human
Method: as §2, §3, §4

[7] = test system: NBS1; experiment: Quantitative RT-PCR, unsorted mononuclear cells, NBS1; type: cell-based, human
Method: as §2, §3, §4

[8] = test system: FCGR1a; experiment: Quantitative RT-PCR, unsorted mononuclear cells, FCGR1A; type: cell-based, human
Method: as §2, §3, §4

[9] = test system: TNFα; experiment: QRT-PCR in CD14/CD16-separated cell fractions, TNFα RNA; type: cell-based, human; conditions: monocytes, 10 μM MGBG, p=0.03
Method: (§5) The changes induced by MGBG in different blood cell types were determined for osteopontin and adenosine deaminase and 7 other genes. For this experiment, blood samples were obtained from 6 healthy controls (3 men/3 women from 20 to 55 years of age) and mononuclear cells were isolated via Percoll gradient centrifugation. The cells were then incubated for 3 hours in RPMI media plus 10% fetal bovine serum at 37 C. At that point MGBG was added to 10 μM to half of each sample and then the cells were incubated at 37 C for 20 more hours. The cells were then bound to magnetic beads coated with antibodies to human CD16. Bound cells (CD16 expressing) were separated from unbound cells using an AutoMACs according to manufacturer's instructions (Miltenyi, Auburn Calif.). Then CD16+ cells are released from the magnetic beads and both the CD16+ and CD16− cells are combined with magnetic beads coated with antibodies to human CD14. Antibody bound and unbound cells were then separated using the AutoMACs machine. […] Cells that neither express CD16 nor CD14 (the −/− Cells). This is mostly T lymphocytes; 2. Cells that only express CD16. This includes contaminating granulocytes not removed by Percoll centrifugation and CD16+ monocytes with very low CD14 expression; 3. […] After separation, cells of each fraction are washed with PBS and the number of viable cells determined by trypan blue exclusion. […]

[10] = test system: CD14; experiment: QRT-PCR in CD14/CD16-separated cell fractions, CD14 RNA; type: cell-based, human; conditions: CD14/CD16++ macrophages, 10 μM MGBG, p=0.02
Method: as §5

[11] = test system: OPN; experiment: OPN antibody staining of brains and lymph nodes of SIV-infected animals; type: in vivo, Rhesus macaques
Method: These monkeys were then treated with MGBG as described.

[12] = test system: OPN protein; experiment: OPN production inhibition assay in un-stimulated PBMC cultures, OPN protein; type: cell-based; conditions: 10 μM
Method: 10 μM of each drug was added to un-stimulated PBMC cultures at time=0 and cells were harvested 1,3, and 6 days later for quantitative OPN RNA and protein production analysis.

[13] = 10 μM MGBG overnight, untreated vs treated, negative = fold reduction, individual samples
[14] = 10 μM MGBG, all unsorted samples
[15] = 10 μM MGBG overnight, individual samples

CC(/C=N/NC(=N)N)=N\NC(=N)N [MGBG, 1,1′ [methylethanediylidene]dinitrilodiguanidine]
IL24 signal +, Average ([1]; average of HIV samples): 560 | IL24 signal +, Average ([1]; average of control samples (C6-, M6-177)): 598 | IL24 fold change, MGBG/ON ratio (up-regulation) ([1]; 10 μM, individual donor samples): 5.4 fold and 1.2 fold (2×) and 3.3 fold and 0.3 fold and 0.5 fold and 0.2 fold and 5.5 fold and 2.6 fold and 4.5 fold (2×) and 0.03 fold and 192.1 fold and 0.6 fold and 26.0 fold | IL24 regulation after MGBG exposure ([1]; HIV infected samples but not controls): upregulated | IL24 signal + ([1]; presence of 10 μM MGBG overnight, individual donor samples): 111 and 85 and 1940 and 178 and 375 and 578 and 206 and 1549 and 925 and 163 and 166 and 350 and 1364 and 59 and 577 | probes down-regulated at least 1.5 fold [2]: 489 probes | probes up-regulated at least 1.5 fold [2]: 382 probes | Fold change SPP1 by QRT-PCR [3, 13]: −20.11 fold and −83.87 fold and −6.59 fold and −1.30 fold and −8.82 fold and −95.67 fold and −7.89 fold and −1.95 fold and −46.21 fold and −5.90 fold and −2.11 fold and −6.15 fold and −1.28 fold and −467.88 fold and −18.90 fold (2×) and −300.25 fold and −2.14 fold | Fold change SPP1, AVERAGE [3, 14]: −60.9 fold | Fold change SPP1, MAX [3, 14]: −1.3 fold | Fold change SPP1, MIN [3, 14]: −467.9 fold | SPP1 fold changes between the untreated and the treated ([3]; certain unsorted samples): up to 300 fold | SPP1 % >2 fold Changed ([3]; share of samples, 10 μM MGBG): 83% | Fold change IL1RN by QRT-PCR [4, 13]: −10.41 fold and −3.73 fold and 1.12 fold and −1.73 fold and −1.36 fold and −14.22 fold and −1.87 fold and −1.78 fold and 8.63 fold and −2.27 fold and 1.59 fold and −8.17 fold and −19.56 fold and −1.77 fold and −4.92 fold and −2.31 fold and −8.28 fold and −17.75 fold | Fold change IL1RN, AVERAGE [4, 14]: −4.9 fold | Fold change IL1RN, MAX [4, 14]: 8.6 fold | Fold change IL1RN, MIN [4, 14]: −19.6 fold | IL1RN % >2 fold Changed ([4]; share of samples, 10 μM MGBG): 55% | samples with IL1RN down-regulated ([4]; unsorted samples): 15 out of 18 | Fold change SGNE3 by QRT-PCR [5, 13]: 1.58 fold and −3.25 fold and −1.30 fold and −2.39 fold and −2.43 fold and −1.48 fold and 1.61 fold and −3.61 fold and −1.66 fold and −1.13 fold and 1.79 fold and −7.11 fold and −2.50 fold and −4.41 fold | Fold change SGNE3, AVERAGE [5, 14]: −1.9 fold | Fold change SGNE3, MAX [5, 14]: 1.8 fold | Fold change SGNE3, MIN [5, 14]: −7.1 fold | SGNE3 regulation by MGBG ([5]; level of inhibition in most samples is low): mostly down-regulated | SGNE3 % >2 fold Changed ([5]; share of samples, 10 μM MGBG): 50% | Fold change IL24 by QRT-PCR [6, 13]: 5.35 fold and 1.20 fold and 1.09 fold and −1.13 fold and 1.12 fold and 11.88 fold and 2.57 fold and 2.55 fold and 2.25 fold and 1.01 fold and −1.17 fold and 1.92 fold and 1.32 fold and 1.79 fold and 2.50 fold and −2.41 fold and −1.48 fold and −1.30 fold | Fold change IL24, AVERAGE [6, 14]: 1.6 fold | Fold change IL24, MAX [6, 14]: 11.9 fold | Fold change IL24, MIN [6, 14]: −2.4 fold | IL24 % >2 fold Changed ([6]; share of samples, 10 μM MGBG): 33% | IL24 regulation by MGBG ([6]; unsorted samples): did not exhibit a consistent pattern of change | Fold change NBS1 by QRT-PCR [7, 15]: 1.68 fold and 1.25 fold and 1.35 fold and −1.56 fold and 2.07 fold and 3.51 fold (2×) and −1.09 fold and 1.04 fold and 4.08 fold and 2.31 fold and 1.14 fold and 1.27 fold and −4.35 fold and −8.51 fold and −2.51 fold and −1.89 fold and 3.63 fold | NBS1 AVERAGE ([7]; 10 μM MGBG, all samples): 1.65 fold | NBS1 MAX ([7]; 10 μM MGBG, all samples): 4.08 fold | NBS1 MIN ([7]; 10 μM MGBG, all samples): −8.51 fold | Fold change FCGR1A by QRT-PCR [8, 15]: −1.61 fold and −1.84 fold and −1.01 fold and −1.72 fold and −3.73 fold and 1.72 fold and 5.94 fold and 2.39 fold and −1.97 fold and 19.03 fold and 1.16 fold and −0.41 fold and −0.43 fold and −10.78 fold and −17.15 fold and −2.22 fold and −3.86 fold and 1.05 fold | FCGR1A AVERAGE ([8]; 10 μM MGBG, all samples): 2.25 fold | FCGR1A MAX ([8]; 10 μM MGBG, all samples): 19.03 fold | FCGR1A MIN ([8]; 10 μM MGBG, all samples): −17.15 fold | TNFα RNA median signal relative to no MGBG [9]: 0.32 | CD14 RNA median signal relative to no MGBG [10]: 0.55 | OPN in brains, antibody staining ([11]; FIG. 10, treated SIV-infected animals): complete removal of OPN | OPN staining in lymph nodes ([11]; FIG. 11, treated animals B146 and CB18): markedly decreased levels of OPN | OPN protein production [12]: Complete inhibition
